Key:
acid phosphatase = experiment: Acid phosphatase activity, mouse macrophages; assay type: cell-based, mouse (J774 macrophages); details: Table 3; read-out: IC50 Acid Phosphatase, Mouse Macrophage
[1] = molecular target: prostaglandin cyclooxygenase; experiment: Prostaglandin cyclooxygenase activity, macrophages; assay type: cell-based, mouse (J774 macrophages); details: Table 7
cathepsin = experiment: Cathepsin activity, mouse macrophages; assay type: cell-based, mouse (J774 macrophages); details: Table 3; read-out: IC50 Cathepsin, Mouse Macrophage
[2] = test system: tail flick response to heat; experiment: Hot plate tail flick screen; assay type: in vivo, CF1 male mice; details: for Mice Tail Flick: 8 mg/kg I.P., hot plate, Table 2; for tail flick assay time / blocking central pain compared with morphine: mice; for tail flick assay time: 8 mg/kg; for blocking central pain compared with morphine: tail flick
trypsin = experiment: Trypsin proteolytic activity, mouse macrophages; assay type: cell-based, mouse (J774 macrophages); details: Table 5; read-out: IC50 Trypsin, Mouse Macrophage
elastase = experiment: Elastase activity, mouse macrophages; assay type: cell-based, mouse (J774 macrophages); details: Table 5; read-out: IC50 Elastase, Mouse Macrophage
[3] = test system: acetic acid induced stretch reflex; experiment: Local analgesic screen (acetic acid writhing); assay type: in vivo, CF1 mice; details: for Mice Writhing Reflex: 8 mg/kg I.P., Table 2; for reduction of the reflex action: mice, acetic acid induced local pain, 8 mg/kg
[4] = test system: carrageenan-induced inflammation of paw; experiment: Carrageenan-induced paw edema, rats; assay type: in vivo, Sprague Dawley male rats; details: for reduction in induced edema in rats: 8 mg/kg x 2; for Rat Inflammatory: 8 mg/kg x 2, I.P., Table 2;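 for Rat Inflammatory: paw weight increase as percent of control rats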
[5] = test system: carrageenan-induced pleural fluid; experiment: Anti-pleurisy screen; assay type: in vivo, Sprague Dawley male rats; details: for pleurisy edema in rats: 8 mg/kg; for Rat Pleurisy: rats, 8 mg/kg I.P., 1 h before and 3 h after carrageenan, Table 2;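 for Rat Pleurisy: Pleural fluid volume as percent of control rats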
aryl sulphatase = experiment: Aryl sulfatase activity, mouse macrophages; assay type: cell-based, mouse (J774 macrophages); details: Table 3; read-out: IC50 Aryl Sulfatase, Mouse Macrophage
[6] = test system: carrageenan-induced inflammation of hind foot; experiment: Carrageenan-induced foot edema, mice; assay type: in vivo, CF1 male mice; details: for anti-inflammatory activity in mouse edema screen / reduction of induced edema: mice; for anti-inflammatory activity in mouse edema screen: 8 mg/kg x 2; for reduction of induced edema: 8 mg/kg x 2, I.P., carrageenan; for inhibition of induced inflammation: standards at their therapeutic dose (indomethacin 8 mg/kg x 2, pentoxifylline and phenylbutazone 50 mg/kg x 2)

## C[NH+](C)[BH2-]C(=O)O [Compound 3]
Acid phosphatase
  IC50: 4.75 µM
[1]
  IC50: 2910 nM
cathepsin
  IC50: 6.39 µM
[2]
  Mice Tail Flick: 156 % of control
  tail flick assay time: increased
trypsin
  IC50: 3100 nM
elastase
  IC50: 2.67 µM

## C[N+](C)(C)[BH2-]C(=O)O [Compound 4]
[3]
  Mice Writhing Reflex: 2 % of control
  reduction of the reflex action: 80%
[4]
  reduction in induced edema in rats: at least 40%
  Rat Inflammatory: 55 % of control

## CC[NH2+][BH2-]C(=O)O [Compound 5]
[2]
  Mice Tail Flick: 196 % of control
  tail flick assay time: increased
[3]
  Mice Writhing Reflex: 1 % of control
  reduction of the reflex action: 80%
[4]
  reduction in induced edema in rats: at least 40%
  Rat Inflammatory: 59 % of control

## CCC[NH+]([BH2-]C(=O)O)CCC [Compound 6]
[3]
  Mice Writhing Reflex: 19 % of control
[4]
  reduction in induced edema in rats: at least 40%
  Rat Inflammatory: 55 % of control

## CCCCCCCCCCCCCCCCCC[N+](C)(C)[BH2-]C(=O)O [Compound 9]
Acid phosphatase
  IC50: 5.34 µM
[1]
  IC50: 2510 nM
cathepsin
  IC50: 5.09 µM
[2]
  Mice Tail Flick: 231 % of control
  tail flick assay time: increased
  blocking central pain compared with morphine: as effective as morphine
[3]
  Mice Writhing Reflex: 14 % of control
  reduction of the reflex action: 80%
[4]
  Rat Inflammatory: 72 % of control
trypsin
  IC50: 2070 nM
elastase
  IC50: 6.29 µM
[5]
  pleurisy edema in rats: reduced significantly
  Rat Pleurisy: 37 % of control

## O=C(O)[BH2-][n+]1ccccc1 [Compound 11]
[4]
  Rat Inflammatory: 77 % of control

## COC(=O)[BH2-][N+](C)(C)C [Compound 16]
Acid phosphatase
  IC50: 3.55 µM
[1]
  IC50: 2410 nM
cathepsin
  IC50: 8.28 µM
[2]
  Mice Tail Flick: 180 % of control
  tail flick assay time: increased
[3]
  Mice Writhing Reflex: 2 % of control
  reduction of the reflex action: 80%
[4]
  Rat Inflammatory: 71 % of control
trypsin
  IC50: 3230 nM
Aryl sulphatase
  IC50: 17.6 µM
[6]
  anti-inflammatory activity in mouse edema screen: less active
elastase
  IC50: 8.76 µM
[5]
  pleurisy edema in rats: reduced significantly
  Rat Pleurisy: 45 % of control

## CCCCCCCCCCCCCCCC[N+](C)(C)[BH2-]C(=O)OCC [Compound 19]
[6]
  anti-inflammatory activity in mouse edema screen: less active

## CCNC(=O)[BH2-][NH2+]C [Compound 23]
Acid phosphatase
  IC50: 1.12 µM
[1]
  IC50: 5190 nM
cathepsin
  IC50: 3.95 µM
[2]
  Mice Tail Flick: 81 % of control
[3]
  Mice Writhing Reflex: 27 % of control
  reduction of the reflex action: at least 45%
[4]
  reduction in induced edema in rats: at least 40%
  Rat Inflammatory: 41 % of control
trypsin
  IC50: 2030 nM
Aryl sulphatase
  IC50: 9.27 µM
elastase
  IC50: 3.29 µM

## CCNC(=O)[BH2-][N+](C)(C)C [Compound 25]
[3]
  Mice Writhing Reflex: 89 % of control

## CCCCNC(=O)[BH2-][N+](C)(C)C [Compound 27]
[3]
  reduction of the reflex action: at least 45%

## CCNC(=O)[BH2-][N+](C)(C)CC[N+](C)(C)[BH2-]C(=O)NCC [Compound 30]
[3]
  Mice Writhing Reflex: 34 % of control

## CCCCCCCCCCCCCCCCCC[N+](C)(C)[BH2-]C#N [Compound 36]
Acid phosphatase
  IC50: 2.68 µM
[1]
  IC50: 2230 nM
cathepsin
  IC50: 3.69 µM
[3]
  Mice Writhing Reflex: 61 % of control
  reduction of the reflex action: at least 45%
trypsin
  IC50: 4340 nM
[6]
  anti-inflammatory activity in mouse edema screen: good activity
elastase
  IC50: 10.3 µM

## N#C[BH2-][P+](c1ccccc1)(c1ccccc1)c1ccccc1 [Compound 48]
[2]
  Mice Tail Flick: 134 % of control
[3]
  Mice Writhing Reflex: 50 % of control
  reduction of the reflex action: at least 45%
[4]
  Rat Inflammatory: 78 % of control

## CCNC(=O)[BH2-][P+]([O-])(OCC)OCC.[Na+] [Compound 54]
[6]
  reduction of induced edema: at least 40%

## CCCC[N+](CCCC)(CCCC)CCCC.CCNC(=O)[BH2-][P+]([O-])(OCC)OCC [Compound 57]
Acid phosphatase
  IC50: 4.43 µM
[1]
  IC50: 3090 nM
cathepsin
  IC50: 6.49 µM
trypsin
  IC50: 3760 nM
elastase
  IC50: 9.01 µM

## CC[N+]([BH2-]C#N)(CC)CP(=O)(OC)OC [Compound 62]
[6]
  reduction of induced edema: at least 40%

## CC[N+]([BH2-]C#N)(CC)CP(=O)(OC(C)C)OC(C)C [Compound 64]
[6]
  reduction of induced edema: at least 40%

## CCOP(=O)(C[N+](C)(C)[BH2-]C#N)OCC [Compound 66]
[6]
  reduction of induced edema: at least 40%

## CC(C)OP(=O)(C[NH+](C)[BH2-]C#N)OC(C)C (centres unmarked) [Compound 67]
[6]
  reduction of induced edema: at least 40%

## CCOC(=O)[BH2-][N+](C)(C)CP(=O)(OCC)OCC [Compound 68]
[6]
  reduction of induced edema: at least 40%

## CCNC(=O)[BH2-][NH+](C)CP(=O)(OCC)OCC (centres unmarked) [Compound 69]
[6]
  reduction of induced edema: at least 40%

## CC(C)OP(=O)(C[NH+](C)[BH2-]C(=O)O)OC(C)C (centres unmarked) [Compound 71]
[6]
  reduction of induced edema: at least 40%

## CCNC(=O)[BH2-][NH+](C)CP(=O)(OC(C)C)OC(C)C (centres unmarked) [Compound 73]
[6]
  reduction of induced edema: at least 40%

## C[NH2+][BH2-]C(=O)NO.[H+].c1ccc([B-](c2ccccc2)(c2ccccc2)c2ccccc2)cc1 [Compound 75]
Acid phosphatase
  IC50: 6.61 µM
[1]
  IC50: 6610 nM
cathepsin
  IC50: 4.58 µM
[2]
  Mice Tail Flick: 279 % of control
  tail flick assay time: increased
  blocking central pain compared with morphine: as effective as morphine
[3]
  Mice Writhing Reflex: 34 % of control
  reduction of the reflex action: at least 45%
trypsin
  IC50: 2510 nM
Aryl sulphatase
  IC50: 1.5 µM
[6]
  reduction of induced edema: at least 40%
elastase
  IC50: 7.59 µM

## C[N+](C)(C)[BH2-]C(=O)NO.[H+].c1ccc([B-](c2ccccc2)(c2ccccc2)c2ccccc2)cc1 [Compound 76]
Acid phosphatase
  IC50: 3.96 µM
[1]
  IC50: 1610 nM
cathepsin
  IC50: 1.69 µM
[2]
  Mice Tail Flick: 258 % of control
  tail flick assay time: increased
  blocking central pain compared with morphine: as effective as morphine
[3]
  Mice Writhing Reflex: 45 % of control
  reduction of the reflex action: at least 45%
[4]
  Rat Inflammatory: 60 % of control
trypsin
  IC50: 2060 nM
Aryl sulphatase
  IC50: 1.37 µM
[6]
  reduction of induced edema: at least 40%
elastase
  IC50: 4.83 µM
[5]
  pleurisy edema in rats: reduced significantly
  Rat Pleurisy: 50 % of control

## C[N+]1([BH2-]C(=O)O)CCOCC1 [Compound 84]
[6]
  reduction of induced edema: at least 30%

## COC(=O)[BH2-][NH+]1CCC(c2ccccc2)CC1 (centres unmarked) [Compound 87]
Acid phosphatase
  IC50: 2.68 µM
cathepsin
  IC50: 3.99 µM
[3]
  Mice Writhing Reflex: 89 % of control
trypsin
  IC50: 2850 nM
[6]
  reduction of induced edema: at least 30%
elastase
  IC50: 6.98 µM

## Cc1[nH]cc[n+]1[BH2-]C#N [Compound 91]
[6]
  reduction of induced edema: at least 30%

## CN1CC[C@]23c4c5ccc(O)c4O[C@H]2[C@@H](O)C=C[C@H]3[C@H]1C5 [Morphine, morphine, reference compound]
[2]
  Mice Tail Flick: 213 % of control

## CCCCC1C(=O)N(c2ccccc2)N(c2ccccc2)C1=O [Phenylbutazone, phenylbutazone, reference compound]
[4]
  Rat Inflammatory: 47 % of control
[6]
  inhibition of induced inflammation: 47%

## CC(=O)CCCCn1c(=O)c2c(ncn2C)n(C)c1=O [pentoxifylline, reference compound]
[6]
  inhibition of induced inflammation: 30%

Source: article PMC2364952, “The Anti-Inflammatory Activity of Boron Derivatives in Rodents” (Metal-Based Drugs, 1995)
